Reference: patent publication EP4635500A1, “THERAPEUTIC AGENT FOR BACTERIAL INFECTION” (Sumitomo Pharma Co., Ltd., priority 2022, dated 2024)
≈ marks a conversion by molar mass, not a printed value. Read-outs that look alike come from different tables or passages of the source.

Experiments:
Porphyromonas spp. = assay: MIC, agar dilution, anaerobic bacteria (Example 9, Tables 19, 24); format: cell-based; conditions: for MIC: (n)=Compound A µg/mL, 0=Compound A alone antibacterial
[1] = mouse, in vivo
Prevotella spp. = assay: MIC, agar dilution, anaerobic bacteria (Example 9, Tables 18, 23); format: cell-based; conditions: for MIC: (n)=Compound A µg/mL, 0=Compound A alone antibacterial
P. aeruginosa = assay: MIC, Gram-negative bacteria clinically isolated in the United States (Example 8, Table 16); format: cell-based; conditions: Pseudomonas aeruginosa; P. aeruginosa (80 strains) isolated in the United States; Compound A µg/mL in parentheses
[2] = table at the place of Table 24, Prevotella spp.

C[C@@H](O)[C@H]1C(=O)N2C(C(=O)O)=C(S[C@@H]3CN[C@H](C(=O)N(C)C)C3)[C@H](C)[C@H]12 [MEPM, meropenem]
MIC (Porphyromonas spp.; KUB No. 6673 Porphyromonas gingivalis): ≤ 0.03 µg/mL | MIC (Porphyromonas spp.; KUB No. 6674 Porphyromonas gingivalis): ≤ 0.03 µg/mL | MIC (Porphyromonas spp.; KUB No. 6676 Porphyromonas gingivalis): ≤ 0.03 µg/mL | MIC (Porphyromonas spp.; KUB No. 6677 Porphyromonas gingivalis): ≤ 0.03 µg/mL | MIC (Porphyromonas spp.; KUB No. 6678 Porphyromonas gingivalis): ≤ 0.03 µg/mL | MIC (Porphyromonas spp.; KUB No. 6679 Porphyromonas gingivalis): ≤ 0.03 µg/mL | MIC (Porphyromonas spp.; KUB No. 6680 Porphyromonas gingivalis): ≤ 0.03 µg/mL | MIC (Porphyromonas spp.; KUB No. 6681 Porphyromonas gingivalis): ≤ 0.03 µg/mL | MIC (Porphyromonas spp.; KUB No. 6682 Porphyromonas gingivalis): ≤ 0.03 µg/mL | MIC (Porphyromonas spp.; KUB No. 6683 Porphyromonas gingivalis): ≤ 0.03 µg/mL | MIC (Porphyromonas spp.; KUB No. 6684 Porphyromonas gingivalis): ≤ 0.03 µg/mL | MIC (Porphyromonas spp.; KUB No. 6685 Porphyromonas gingivalis): ≤ 0.03 µg/mL | MIC (Porphyromonas spp.; KUB No. 6686 Porphyromonas gingivalis): ≤ 0.03 µg/mL | MIC (Porphyromonas spp.; KUB No. 6687 Porphyromonas gingivalis): ≤ 0.03 µg/mL | MIC (Porphyromonas spp.; KUB No. 6688 Porphyromonas gingivalis): 0.03 µg/mL (≈ 0.0782 µM) | MIC (Porphyromonas spp.; Porphyromonas, KUB No. 6665 Porphyromonas assaccharolytica): ≤ 0.03 µg/mL | MIC50 (Porphyromonas spp.; Porphyromonas, n=26, combination: Compound A at 4 ug/mL, read-out: MIC50): ≤ 0.03 µg/mL | MIC90 (Porphyromonas spp.; Porphyromonas, n=26, combination: Compound A at 4 ug/mL, read-out: MIC90): ≤ 0.03 µg/mL | MIC50 (Porphyromonas spp.; [2]): ≤0.03 µg/mL | MIC90 (Porphyromonas spp.; [2]): ≤0.03 µg/mL | MICrange (Porphyromonas spp.; [2]): ≤0.03 µg/mL | %fT > 8 µg/mL [1]: ≥ 40% | MIC (Prevotella spp.; KUB No. 2989 Prevotella histicola): 0.06 µg/mL (≈ 0.156 µM) | MIC (Prevotella spp.; KUB No. 2991 Prevotella intermedia): 0.06 µg/mL (≈ 0.156 µM) | MIC (Prevotella spp.; KUB No. 2992 Prevotella buccae): 0.12 µg/mL (≈ 0.313 µM) | MIC (Prevotella spp.; KUB No. 3005 Prevotella melaninogenica): ≤ 0.03 µg/mL | MIC (Prevotella spp.; KUB No. 6558 Prevotella heparinolytica): 0.06 µg/mL (≈ 0.156 µM) | MIC (Prevotella spp.; KUB No. 6559 Prevotella intermedia): ≤ 0.03 µg/mL | MIC (Prevotella spp.; KUB No. 6560 Prevotella nigrescens): ≤ 0.03 µg/mL | MIC (Prevotella spp.; KUB No. 6561 Prevotella melaninogenica): 0.12 µg/mL (≈ 0.313 µM) | MIC (Prevotella spp.; KUB No. 6563 Prevotella nigrescens): ≤ 0.03 µg/mL | MIC (Prevotella spp.; KUB No. 6564 Prevotella buccae): 0.12 µg/mL (≈ 0.313 µM) | MIC (Prevotella spp.; KUB No. 6565 Prevotella nigrescens): 0.06 µg/mL (≈ 0.156 µM) | MIC (Prevotella spp.; KUB No. 6567 Prevotella melaninogenica): ≤ 0.03 µg/mL | MIC (Prevotella spp.; KUB No. 6568 Prevotella intermedia): 0.06 µg/mL (≈ 0.156 µM) | MIC (Prevotella spp.; KUB No. 6569 Prevotella nanceiensis): 0.5 µg/mL (≈ 1.3 µM) | MIC (Prevotella spp.; KUB No. 6570 Prevotella intermedia): 0.06 µg/mL (≈ 0.156 µM) | MIC (Prevotella spp.; KUB No. 6571 Prevotella denticola): 0.06 µg/mL (≈ 0.156 µM) | MIC (Prevotella spp.; KUB No. 6572 Prevotella melaninogenica): 0.06 µg/mL (≈ 0.156 µM) | MIC (Prevotella spp.; KUB No. 6574 Prevotella oris): ≤ 0.03 µg/mL | MIC (Prevotella spp.; KUB No. 6575 Prevotella nigrescens): ≤ 0.03 µg/mL | MIC (Prevotella spp.; KUB No. 6576 Prevotella intermedia): ≤ 0.03 µg/mL | MIC (Prevotella spp.; KUB No. 6579 Prevotella pallens): 0.06 µg/mL (≈ 0.156 µM) | MIC (Prevotella spp.; KUB No. 6581 Prevotella intermedia): 0.06 µg/mL (≈ 0.156 µM) | MIC (Prevotella spp.; KUB No. 6582 Prevotella melaninogenica): 0.06 µg/mL (≈ 0.156 µM) | MIC (Prevotella spp.; KUB No. 6585 Prevotella baroniae): 0.06 µg/mL (≈ 0.156 µM) | MIC (Prevotella spp.; KUB No. 6587 Prevotella melaninogenica): 0.06 µg/mL (≈ 0.156 µM) | MIC (Prevotella spp.; KUB No. 6588 Prevotella nigrescens): ≤ 0.03 µg/mL | MIC (Prevotella spp.; KUB No. 6589 Prevotella buccae): 0.12 µg/mL (≈ 0.313 µM) | MIC (Prevotella spp.; KUB No. 6590 Prevotella buccae): 0.32 µg/mL (≈ 0.834 µM) | MIC (Prevotella spp.; KUB No. 6591 Prevotella intermedia): 0.06 µg/mL (≈ 0.156 µM) | MIC (Prevotella spp.; KUB No. 6592 Prevotella jejuni): 0.06 µg/mL (≈ 0.156 µM) | MIC (Prevotella spp.; KUB No. 6600 Prevotella intermedia): ≤ 0.03 µg/mL | MIC (Prevotella spp.; KUB No. 6601 Prevotella melaninogenica): 0.12 µg/mL (≈ 0.313 µM) | MIC (Prevotella spp.; KUB No. 6603 Prevotella melaninogenica): 0.12 µg/mL (≈ 0.313 µM) | MIC (Prevotella spp.; KUB No. 6609 Prevotella buccae): 0.12 µg/mL (≈ 0.313 µM) | MIC (Prevotella spp.; KUB No. 6611 Prevotella nigrescens): 0.06 µg/mL (≈ 0.156 µM) | MIC (Prevotella spp.; KUB No. 6612 Prevotella oris): 0.25 µg/mL (≈ 0.652 µM) | MIC (Prevotella spp.; KUB No. 6613 Prevotella buccae): 0.12 µg/mL (≈ 0.313 µM) | MIC (Prevotella spp.; KUB No. 6614 Prevotella intermedia): ≤ 0.03 µg/mL | MIC (Prevotella spp.; KUB No. 6615 Prevotella buccae): 0.06 µg/mL (≈ 0.156 µM) | MIC (Prevotella spp.; KUB No. 6617 Prevotella buccae): 0.06 µg/mL (≈ 0.156 µM) | MIC (Prevotella spp.; KUB No. 6618 Prevotella melaninogenica): 0.06 µg/mL (≈ 0.156 µM) | MIC (Prevotella spp.; KUB No. 6622 Prevotella loescheii): 0.06 µg/mL (≈ 0.156 µM) | MIC (Prevotella spp.; KUB No. 6623 Prevotella nigrescens): ≤ 0.03 µg/mL | MIC (Prevotella spp.; KUB No. 6625 Prevotella melaninogenica): ≤ 0.03 µg/mL | MIC (Prevotella spp.; KUB No. 6626 Prevotella loescheii): ≤ 0.03 µg/mL | MIC (Prevotella spp.; KUB No. 6629 Prevotella bivia): 0.06 µg/mL (≈ 0.156 µM) | MIC (Prevotella spp.; KUB No. 6630 Prevotella nigrescens): ≤ 0.03 µg/mL | MIC (Prevotella spp.; KUB No. 6631 Prevotella jejuni): 0.06 µg/mL (≈ 0.156 µM) | MIC50 (Prevotella spp.; Prevotella spp.): 0.06 µg/mL (≈ 0.156 µM) | MIC90 (Prevotella spp.; Prevotella spp.): 0.12 µg/mL (≈ 0.313 µM) | MICrange (Prevotella spp.; Prevotella spp.): ≤0.03 to 0.5 µg/mL | MIC (Prevotella spp.; Prevotella, KUB No. 6583 Prevotella nonceiensis): 0.12 µg/mL (≈ 0.313 µM) | MIC (Prevotella spp.; Prevotella, KUB No. 6604 Prevotella nonceiensis): 0.25 µg/mL (≈ 0.652 µM) | MIC50 (Prevotella spp.; Prevotella, n=54, combination: Compound A at 4 ug/mL, read-out: MIC50): 0.06 µg/mL | MIC90 (Prevotella spp.; Prevotella, n=54, combination: Compound A at 4 ug/mL, read-out: MIC90): 0.12 µg/mL | MIC (Prevotella spp.; po, KUB No. 6566 Prevotella oralis): ≤ 0.03 µg/mL | MIC50 (P. aeruginosa): 2 µg/mL (≈ 5.22 µM) | MIC90 (P. aeruginosa): 32 µg/mL (≈ 83.4 µM)
